Consider one compound from patent publication US20040219173A1, “METHOD FOR TREATING HIV” (priority 2000, published 2004).

Each structure is given as a SMILES string. Read-outs that look alike come from different tables or passages of the source.

For series [1] the following is noted: cited from earlier work.
Series [2] is described as follows: Complications from use of the NaCl tablets in the test subjects. The conditions noted are these: Example II, 12 subjects, 250 mg tablets. The format is in vivo, human. As to the method:
12 representative persons would be treated by the inventive method, but with a 250 mg tablet of solid NaCI (except certain other ingredients also are incorporated into the tablets, for a total of 250 mg, for test subject nos. 11 and 12, as further discussed below).

Turning to `[Cl-].[Na+]` [NaCI, sodium chloride], the saturation in water result is “about 35.7 % by weight” in series [1] (0°C) and “about 32.6 % by weight” in series [1] (room temperature (72°F, 22.2°C)). For the same compound, the “complications from use of the tablets” value in series [2] is given as “No complications”.
